ChEMBL document CHEMBL1149697, “Identification of dissociated non-steroidal glucocorticoid receptor agonists” (Bioorg Med Chem Lett, 2007)

Key:
Homo sapiens = species on record: Homo sapiens; assay: Selectivity ratio of human GR over human PR
Progesterone receptor = biological target: T1, Progesterone receptor (Homo sapiens, UniProt P06401); assay: Displacement of TAMRA labeled mifepristone at human progesterone receptor in insect cell
T1 sequence (P06401 whole entry): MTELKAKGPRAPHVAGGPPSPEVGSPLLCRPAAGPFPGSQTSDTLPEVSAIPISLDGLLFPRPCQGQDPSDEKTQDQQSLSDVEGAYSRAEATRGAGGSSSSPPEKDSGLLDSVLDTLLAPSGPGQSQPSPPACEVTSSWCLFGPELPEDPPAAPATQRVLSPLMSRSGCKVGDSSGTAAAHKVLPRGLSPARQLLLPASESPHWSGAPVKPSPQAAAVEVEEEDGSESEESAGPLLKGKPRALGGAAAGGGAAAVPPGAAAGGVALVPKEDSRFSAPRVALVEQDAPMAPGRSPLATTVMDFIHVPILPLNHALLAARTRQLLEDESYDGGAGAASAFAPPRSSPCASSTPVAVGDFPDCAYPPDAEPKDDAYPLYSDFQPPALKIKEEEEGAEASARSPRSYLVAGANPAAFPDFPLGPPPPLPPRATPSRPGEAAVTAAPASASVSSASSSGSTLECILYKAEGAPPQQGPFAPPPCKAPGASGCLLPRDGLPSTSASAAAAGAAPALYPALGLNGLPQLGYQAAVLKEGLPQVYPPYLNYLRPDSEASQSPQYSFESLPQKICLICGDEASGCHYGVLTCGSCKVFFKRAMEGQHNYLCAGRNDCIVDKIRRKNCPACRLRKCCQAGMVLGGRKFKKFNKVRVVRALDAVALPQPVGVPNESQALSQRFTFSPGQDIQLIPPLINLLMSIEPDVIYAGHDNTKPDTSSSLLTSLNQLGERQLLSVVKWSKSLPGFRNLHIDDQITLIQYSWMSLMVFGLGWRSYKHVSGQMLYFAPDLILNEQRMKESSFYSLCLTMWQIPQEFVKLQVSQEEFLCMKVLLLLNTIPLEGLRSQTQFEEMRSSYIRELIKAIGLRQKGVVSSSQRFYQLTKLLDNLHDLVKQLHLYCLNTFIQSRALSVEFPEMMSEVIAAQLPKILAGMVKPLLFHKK

HFF [1] = assay: Antiinflammatory activity assessed as inhibition of IL1 stimulated IL6 production in HFF cells by transrepression assay; type: functional, cell-based; details: Homo sapiens
HFF [2] = assay: Antiinflammatory activity assessed as upregulation of aromatase in HFF cells by transactivation assay relative to dexamethasone; type: functional, Homo sapiens; set-up: concentration or dose not given beside the values
Glucocorticoid receptor = biological target: T2, Glucocorticoid receptor (Homo sapiens, UniProt P04150)
T2 sequence (P04150 whole entry): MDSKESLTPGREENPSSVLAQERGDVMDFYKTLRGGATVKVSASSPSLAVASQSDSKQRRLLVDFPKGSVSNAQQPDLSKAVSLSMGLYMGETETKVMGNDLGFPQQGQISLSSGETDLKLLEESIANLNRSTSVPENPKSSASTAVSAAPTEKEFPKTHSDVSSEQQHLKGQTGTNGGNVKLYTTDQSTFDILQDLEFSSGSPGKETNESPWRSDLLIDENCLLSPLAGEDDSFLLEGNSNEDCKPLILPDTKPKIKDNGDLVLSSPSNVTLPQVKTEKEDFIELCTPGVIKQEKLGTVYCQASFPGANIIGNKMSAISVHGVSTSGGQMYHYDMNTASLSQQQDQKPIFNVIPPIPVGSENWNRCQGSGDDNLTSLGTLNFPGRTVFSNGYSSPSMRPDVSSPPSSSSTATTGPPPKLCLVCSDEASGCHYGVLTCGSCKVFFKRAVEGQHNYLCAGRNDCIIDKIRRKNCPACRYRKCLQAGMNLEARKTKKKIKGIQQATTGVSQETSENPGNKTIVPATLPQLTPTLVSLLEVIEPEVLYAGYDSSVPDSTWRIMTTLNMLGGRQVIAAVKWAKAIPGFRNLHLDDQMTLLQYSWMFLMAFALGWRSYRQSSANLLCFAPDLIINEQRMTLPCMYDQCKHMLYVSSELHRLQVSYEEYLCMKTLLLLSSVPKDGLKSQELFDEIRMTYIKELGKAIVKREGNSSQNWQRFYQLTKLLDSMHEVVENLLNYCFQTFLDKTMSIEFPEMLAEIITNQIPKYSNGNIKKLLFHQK

[3] = biological target: T3, Mineralocorticoid receptor (Homo sapiens, UniProt P08235); assay: Displacement of TAMRA labeled dexamethasone at human mineralocorticoid receptor in insect cell
T3 sequence (P08235 whole entry): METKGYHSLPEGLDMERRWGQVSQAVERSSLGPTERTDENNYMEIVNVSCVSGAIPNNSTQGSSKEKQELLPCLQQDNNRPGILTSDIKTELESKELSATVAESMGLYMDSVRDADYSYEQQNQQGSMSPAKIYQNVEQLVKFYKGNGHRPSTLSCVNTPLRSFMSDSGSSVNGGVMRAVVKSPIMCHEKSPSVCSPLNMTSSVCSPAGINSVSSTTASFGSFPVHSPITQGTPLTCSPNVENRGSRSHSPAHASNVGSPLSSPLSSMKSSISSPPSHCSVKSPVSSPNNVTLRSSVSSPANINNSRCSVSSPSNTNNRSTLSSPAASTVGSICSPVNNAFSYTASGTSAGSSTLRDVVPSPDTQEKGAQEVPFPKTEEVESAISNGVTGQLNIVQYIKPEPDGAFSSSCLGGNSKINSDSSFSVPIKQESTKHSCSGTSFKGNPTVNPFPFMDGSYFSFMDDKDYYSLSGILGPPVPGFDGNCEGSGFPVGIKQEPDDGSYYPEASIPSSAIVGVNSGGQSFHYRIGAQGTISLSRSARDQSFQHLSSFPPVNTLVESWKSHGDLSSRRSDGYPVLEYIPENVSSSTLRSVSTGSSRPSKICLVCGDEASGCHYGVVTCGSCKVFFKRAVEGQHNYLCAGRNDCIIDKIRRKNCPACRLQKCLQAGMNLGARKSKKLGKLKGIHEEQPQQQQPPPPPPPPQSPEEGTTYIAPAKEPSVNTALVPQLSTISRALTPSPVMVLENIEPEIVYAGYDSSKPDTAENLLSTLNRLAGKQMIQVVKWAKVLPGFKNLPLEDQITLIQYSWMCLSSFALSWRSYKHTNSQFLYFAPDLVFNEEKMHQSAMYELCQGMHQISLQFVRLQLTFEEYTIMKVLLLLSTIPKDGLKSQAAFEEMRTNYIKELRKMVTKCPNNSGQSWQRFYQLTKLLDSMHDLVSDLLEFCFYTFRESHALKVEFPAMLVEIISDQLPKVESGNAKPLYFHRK

HFF [4] = assay: Antiinflammatory activity assessed as inhibition of IL6 production in HFF cells by transrepression assay relative to dexamethasone; type: functional, Homo sapiens
HFF [5] = assay: Antiinflammatory activity assessed as upregulation of aromatase in HFF cells by transactivation assay; type: functional, cell-based; details: Homo sapiens

Row | IC50 (Progesterone receptor) [µM] | IC50 (Glucocorticoid receptor) [µM] | IC50 [3] [µM] | Structure (SMILES) | Ratio IC50 (Homo sapiens) | EC50 (HFF [1]) [µM] | Activity (HFF [2]) [%] | Efficacy (HFF [4]) [%] | EC50 (HFF [5]) [µM]
1 | 0.39 | 0.011 | 0.3 | COc1ccc(F)cc1C(C)(C)CC(O)(Cc1cc(C)c(C#N)c(C)c1)C(F)(F)F (stereo not drawn) | 35 | 0.004 | 115 | 95 | 0.008
2 | 0.14 | 0.017 | 0.32 | COc1ccc(F)cc1C(C)(C)CC(O)(Cc1ccc(C#N)cc1Cl)C(F)(F)F (stereo not drawn) | – | 0.02 | 20 | 60 | 0.03

Row | Structure (SMILES) | IC50 (Progesterone receptor) [µM] | IC50 (Glucocorticoid receptor) [µM] | IC50 [3] [µM] | Ratio IC50 (Homo sapiens) | EC50 (HFF [1]) [µM] | Activity (HFF [2]) [%] | Efficacy (HFF [4]) [%] | EC50 (HFF [5]) [µM]
3 | COc1ccc(F)cc1C(C)(C)CC(O)(Cc1cc(C)cc(C)c1C#N)C(F)(F)F (stereo not drawn) | 1.8 | 0.008 | 0.25 | 225 | 0.04 | 75 | 83 | 0.25
